Results from ChEMBL document CHEMBL5104234, “Targeted protein degradation using the lysosomal pathway” (RSC Med Chem, 2022).

Assays:
[1] = Drug uptake in human HepG2 cells with ASGPR overexpression assessed as fold increase in intracellular uptake; assay type: ADME, cell-based
[2] = tested on: Mus musculus; experiment: Antidiabetic activity in high fat diet-induced obese db/db mouse assessed as reduction in total lipid concentration at 30 mg/kg,ip administered for 2 weeks; assay type: functional; design: scale not given: the % may be the effect or the level left
[3] = Cytoprotective activity against Down syndrome patient-derived human Detroit 532 cells assessed as increase in mitochondrial membrane potential at 10 uM incubated for 3 days by JC-1 staining based fluorescence microscopy; assay type: functional; settings: time 3 day

CC(=O)N[C@@H]1[C@@H](O)[C@@H](O)[C@@H](CO)O[C@@H]1O
fold change (FC) [1]: 16

O=c1cc(-c2ccccc2)c2c(OCCCCCCCCCCOc3ccc4ccccc4c3/N=N/c3ccc(/N=N/c4ccccc4)cc3)cc(O)cc2o1
Activity [2]: 62%

O=C1C(=Cc2cc(Br)c(O)c(Br)c2)c2cc(I)ccc2N1CCCCCCCCCCCOc1ccc2ccccc2c1/N=N/c1ccc(/N=N/c2ccccc2)cc1
Activity [2]: 62%

N[C@@H](COC1O[C@H](CCP(=O)(O)O)[C@@H](O)[C@H](O)[C@@H]1O)C(=O)O (stereo not given in full)
fold change (FC) [1]: 2

CC(=O)N[C@@H](CSc1nc2c(=O)[nH]c(N)nc2n1Cc1ccc(F)cc1)C(=O)NCCCOCCOCCOCCCCC(=O)C(=O)c1c(-c2ccccc2)[nH]c2ccccc12
Activity [3]: 50%
